{"source": "patent US8361802B2", "about": "“Fluorescent ozone sensor” (University of Pittsburgh—Of the Commonwealth System of …, priority 2009, dated 2013)", "assay": "Time-dependence of the conversion of compound 4 to compound 7", "conditions": "37° C.", "description": "Time-dependence of the conversion of compound 4 to compound 7 in buffer. Solution A ([compound 4]final=12.5 μM) was added to a mixture of MeOH/pH 7 buffer ([PO4^3−]=5 mM) (5:95) (4.0 mL), and the sample was exposed to ozone (˜5 μM) at 24° C. followed by incubation at 37° C. Aliquots of the reaction mixture were taken out at various times for fluorescence measurement (FIG. S6). The conversion of compound 4 to compound 7 requires 60 minutes for completion (presumably the β-elimination is the rate determining step because the formation and fragmentation of molozonides are extremely rapid), but 10-15 minutes is sufficient to observe fluorescence signal.\nFIG. 7 illustrates time-dependence of the conversion of compound 4 to compound 7 in cell culture media at 37° C. […]. Solution A ([compound 4]final=12.5 μM) was added to a mixture of 10% FBS in RPMI-1640 cell culture media/pH 7 buffer ([PO4^3−]=5 mM) (1:3) (4.0 mL), and the sample was exposed to ozone (˜5 μM) at 24° C. followed by incubation at 37° C. Aliquots of the reaction mixture were taken out at various times for fluorescence measurement (FIG. 8). The conversion of compound 4 to compound 7 requires 15-20 minutes for completion, but <5 minutes is sufficient to observe fluorescence signal. Although the exact mechanism of this enhancement is not known, catalysis of a β-elimination by action of bovine serum albumin has been previously reported.", "key": {"[1]": {"conditions": "10% FBS in RPMI-1640 cell culture media/pH 7 buffer (1:3)"}, "[2]": {"conditions": "MeOH/pH 7 buffer (5:95), ozone ~5 μM"}}, "data": [{"smiles": "C=CCCOc1cc2oc3cc(=O)c(Cl)cc-3c(-c3ccccc3CO)c2cc1Cl", "note": "[compound 4]", "values": [{"measurement": "time required for completion of conversion of compound 4 to compound 7", "setting": "[1]", "value": "15 to 20", "unit": "min"}, {"measurement": "time sufficient to observe fluorescence signal", "setting": "[1]", "value": "< 5", "unit": "min"}, {"measurement": "time required for completion of conversion of compound 4 to compound 7", "setting": "[2]", "value": 60, "unit": "min"}, {"measurement": "time sufficient to observe fluorescence signal", "setting": "[2]", "value": "10 to 15", "unit": "min"}]}]}
